The source of these data is patent US8399444B2, “Bicyclic imidazole as DP1 receptor antagonists” (GlaxoSmithKline Intellectual Property Development Ltd., priority 2008, dated 2013).

SMILES strings stand for the structures. Counter-ions that a name gives are not always drawn.

The test system of test [1] is asthma model. Particulars: guinea pig; cited from earlier work.
The subject of test [2] is allergic rhinitis model. Conditions: oral administration, guinea pig; cited from earlier work.
Test [3] deals with T1, Prostanoid DP1 receptor (Homo sapiens, UniProt Q13258).
T1 construct: expressed in transfected cells; host or cells: CHO K1
T1 sequence (Q13258 1-359): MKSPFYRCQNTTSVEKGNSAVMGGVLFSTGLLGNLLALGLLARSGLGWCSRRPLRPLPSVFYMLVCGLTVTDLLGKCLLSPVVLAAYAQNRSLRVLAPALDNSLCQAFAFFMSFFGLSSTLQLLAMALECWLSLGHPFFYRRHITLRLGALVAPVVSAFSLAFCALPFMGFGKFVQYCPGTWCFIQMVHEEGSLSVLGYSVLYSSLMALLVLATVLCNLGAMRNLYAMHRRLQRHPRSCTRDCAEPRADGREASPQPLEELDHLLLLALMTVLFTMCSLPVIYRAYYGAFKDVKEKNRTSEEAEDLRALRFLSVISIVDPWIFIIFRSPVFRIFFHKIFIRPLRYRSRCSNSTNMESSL
As to the kind of experiment: Measurement of cAMP using TR-FRET LANCE assay: Prostanoid DP1. Conditions: CHO cells expressing DP1 receptor, antagonism of PGD2 (EC80) cAMP response; read-out: pKi value (converted). Type of test: cell-based. The method, then:
CHO K1 cells, stably expressing the Prostanoid DP1 receptor, were maintained in culture in DMEM/F12, supplemented with 5% FBS, 2 mM L-glutamine, 400 μg/mL hygromycin B in 95%: 5% air: CO2 at 37° C. Following harvest from culture, cells were centrifuged at 250 g at 4° C. for 10 minutes and re-suspended in ice cold dialysed FCS. Once the cells were in mono-suspension they were slowly mixed with an equal volume of ice cold 80% dialysed FCS: 20% DMSO (pre-mixed and chilled several hours earlier). The cells were then aliquoted into 1 mL tubes within a 96 well block (pre-cooled to 4° C.). Once sealed, the tubes were frozen in a controlled rate freezer. The frozen cells were then transferred to a −140° C. freezer for long term storage.
Measurement of cAMP Using TR-FRET LANCE™ Assays: Prostanoid DP1
The potency of the compounds were determined using a LANCE™ cAMP assay kit as per the kit instructions. Briefly, CHO cells expressing DP1 receptor were thawed at 37° C., diluted in PBS and centrifuged at 1000 RPM for 5 minutes. Cells were then re-suspended (2 million cells/mL) in stimulation buffer (HBSS containing 0.01% BSA, 500 μM FAC IBMX, 5 mmol/L HEPES adjusted to pH 7.4 with KOH.
Briefly, cells were added (10,000 cells/well at 5 μL addition) to low volume white Greiner polypropylene 384-well plate assay plates containing 0.1 μl test compound. Following a 15 minute incubation at room temperature, 5 μl of antibody solution (stimulation buffer containing Alexia fluor 647) containing PGD2 at twice the determined EC80 concentration was added. Plates were incubated for a further 30 minutes at room temperature then detection mixture was added (kit components; detection buffer, europiumW8044-labelled streptavidin and biotin cAMP at 10 μl/well). Plates were covered and incubated the room temperature for 1 hour before reading on a Viewlux Microplate Imager using TR-FRET label settings.
All compounds were dissolved in DMSO at a concentration of 10 mM and were prepared in 100% DMSO using a 1 in 4 dilution step to provide 11-point concentration—response curves. The dilutions were transferred to the assay plates ensuring that the DMSO concentration was constant across the plate at 1% for all assays.
All data were normalised to the mean of 16 high and 16 low control wells on each plate. A four parameter curve fit of the following form was then applied.
Where a is the minimum, b is the Hill slope, c is the XC50, and d is the maximum. Data are presented as the mean pXC50 (negative log 10 of the molar XC50) with the standard deviation (SD) of number of tests in the experiments.
Background: TR-FRET usually uses a lanthanide donor and a delayed reading to cut background.

As to `CC1(C)[C@H]2C[C@H](C/C=C\CCCC(=O)O)[C@@H](NC(=O)c3csc4ccc(O)cc34)[C@@H]1C2` [Example S-5751], in test [1], the “antigen-induced eosinophil infiltration into the lung” value is reported as “alleviated”. In addition, the “early and late nasal responses” value in test [2] is listed as “inhibited”.

Take `CC(C)c1nc2c(n1Cc1ccc(Cl)cc1)C(CC(=O)O)CCC2` (centres unmarked) [Example 27, [1-[(4-chlorophenyl)methyl]-2-(1-methylethyl)-4,5,6,7-tetrahydro-1H-benzimidazol-7-yl]acetic acid ammonia salt]: the Ki in test [3] was ≤ 100 nM.

Consider `CC(C)c1nc2c(n1Cc1ccc(Cl)c(Cl)c1)C(CC(=O)O)CCCC2` (single isomer, unassigned; isomer 2) [Example 5, [3-[(3,4-dichlorophenyl)methyl]-2-(1-methylethyl)-3,4,5,6,7,8-hexahydrocyclohepta[d]imidazol-4-yl]acetic acid (isomer 2)], for which the Ki in test [3] is ≤ 100 nM.

Take `CC(C)c1nc2c(n1Cc1ccc(Cl)c(Cl)c1)C(CC(=O)O)CCCC2` (centres unmarked) [Example 3, [3-[(3,4-dichlorophenyl)methyl]-2-(1-methylethyl)-3,4,5,6,7,8-hexahydrocyclohepta[d]imidazol-4-yl]acetic acid ammonia salt]: in test [3], the Ki was ≤ 10 nM.

As for `CC(C)(C)c1nc2c(n1Cc1ccc(Cl)cc1)C(CC(=O)O)CC2` (centres unmarked) [Example 14, [3-[(4-chlorophenyl)methyl]-2-(1,1-dimethylethyl)-3,4,5,6-tetrahydrocyclopenta[d]imidazol-4-yl]acetic acid ammonia salt], the Ki in test [3] was ≤ 100 nM.

Regarding `CC(C)c1nc2c(n1Cc1ccc(Cl)c(Cl)c1)C(CC(=O)O)CCC2` (centres unmarked) [Example 29, [1-[(3,4-dichlorophenyl)methyl]-2-(1-methylethyl)-4,5,6,7-tetrahydro-1H-benzimidazol-7-yl]acetic acid trifluoroacetic acid salt], in test [3], the Ki was ≤ 10 nM.

In the case of `CC(C)c1nc2c(n1Cc1ccc(Cl)cc1Cl)C(CC(=O)O)CCC2` (centres unmarked) [Example 18, [1-(2,4-dichlorobenzyl)-2-isopropyl-4,5,6,7-tetrahydro-1H-benzimidazol-7-yl]acetic acid ammonia salt], the Ki in test [3] was ≤ 100 nM.
